Experimental data: patent publication EP0188793A1, “Improved topical minoxidil composition” (Richardson-Vicks, Inc., priority 1984, dated 1986)

Assay: in-vitro dripping (seepage) assay: distance traveled by a drop down an inclined glass plate
Format: physicochemical
Procedure: An in-vitro assay is utilized which measures the distance traveled by a 10 µ1 drop of the test formulation down a glass plate inclined at 45°C for 10 seconds. The test formulation is colored with dye to enhance the visual movement of the product. Pure ethanol (Ethanol, U.S.P) is used as the standard against which the test formulation is compared. […] The solvent system for each test formulation is 50:50 EtOH:HOH.
The ratio of the distance traveled ("dripping distance") by the particular test formulation to that of the ethanol standard provides the "dripping index" number for the test formulation.

## CCO [100% Ethanol, Ethanol]
10 µ1 drop, glass plate inclined at 45°C, 10 seconds, solvent 50:50 EtOH:HOH
  Dripping Distance: 60 mm
Ratio of dripping distance of the test formulation to that of the ethanol standard
  Dripping Index: 1.00
